Experimental data taken from ChEMBL document CHEMBL2331089, “Characterization, bioinformatic analysis and dithiocarbamate inhibition studies of two new α-carbonic anhydrases, CAH1 and CAH2, from the fruit fly Drosophila melanogaster” (Bioorg Med Chem, 2013).
Where a name gives a salt, the structure may show the parent alone.

Legend:
Carbonic anhydrase 1 = biological target: T1, Carbonic anhydrase 1 (Drosophila melanogaster, UniProt Q9V396); assay: Inhibition of Drosophila melanogaster recombinant carbonic anhydrase-1 expressed in Escherichia coli BL21 (DE3) preincubated for 15 mins by CO2 hydration stopped-flow assay
T1 sequence (Q9V396 whole entry): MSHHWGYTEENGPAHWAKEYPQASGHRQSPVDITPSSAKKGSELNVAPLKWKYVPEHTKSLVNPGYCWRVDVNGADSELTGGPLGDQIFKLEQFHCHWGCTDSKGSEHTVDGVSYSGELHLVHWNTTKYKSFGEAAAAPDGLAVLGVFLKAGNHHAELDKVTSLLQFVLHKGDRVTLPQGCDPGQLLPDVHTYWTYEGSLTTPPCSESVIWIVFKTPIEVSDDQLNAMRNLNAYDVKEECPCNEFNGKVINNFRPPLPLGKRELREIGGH

[1] = biological target: T2, Carbonic anhydrase 2, isoform A (Drosophila melanogaster, UniProt Q9VTU8); assay: Inhibition of Drosophila melanogaster recombinant carbonic anhydrase-2 expressed in Escherichia coli BL21 (DE3) preincubated for 15 mins by CO2 hydration stopped-flow assay
T2 sequence (Q9VTU8 whole entry): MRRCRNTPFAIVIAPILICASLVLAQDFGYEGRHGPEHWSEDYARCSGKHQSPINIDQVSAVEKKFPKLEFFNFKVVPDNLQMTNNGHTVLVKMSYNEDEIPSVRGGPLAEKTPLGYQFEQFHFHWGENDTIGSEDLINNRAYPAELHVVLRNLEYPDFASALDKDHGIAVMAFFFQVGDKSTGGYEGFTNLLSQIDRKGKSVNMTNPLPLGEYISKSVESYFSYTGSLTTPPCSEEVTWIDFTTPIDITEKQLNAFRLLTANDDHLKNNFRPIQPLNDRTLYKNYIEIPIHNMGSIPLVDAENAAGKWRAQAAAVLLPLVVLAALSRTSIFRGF

[2] = Inhibition of Drosophila melanogaster recombinant beat carbonic anhydrase expressed in Escherichia coli BL21 (DE3) preincubated for 15 mins by CO2 hydration stopped-flow assay

`CN(Cc1ccccc1)C(=S)S` [SODIUM BENZYL(METHYL)CARBAMODITHIOATE] showed a Ki (Carbonic anhydrase 1) of 50.2 nM and a Ki [1] of 12.4 nM.
`S=C(S)N1CCN(C(=S)S)CC1` [PIPERAZINECARBAMODITHIOATE DISODIUM SALT] showed a Ki (Carbonic anhydrase 1) of 0.9 nM and a Ki [1] of 21.6 nM.
Compound `CCCN(CCC)C(=S)S` [DIPROPYLCARBAMODITHIOATE SODIUM SALT] has a Ki (Carbonic anhydrase 1) of 23.4 nM and a Ki [1] of 3.9 nM.
`S=C(S)N1CCCC1` showed a Ki (Carbonic anhydrase 1) of 135 nM and a Ki [1] of 4.7 nM.
`S=C(S)NN1CCOCC1` [POTASSIUM MORPHOLINOCARBAMODITHIOATE] gave a Ki (Carbonic anhydrase 1) of 13.1 nM and a Ki [1] of 20.7 nM.
For `CC(C)CN(CC(C)C)C(=S)S` [DIISOBUTYLCARBODITHIOIC ACID SODIUM SALT], the Ki (Carbonic anhydrase 1) was 20.2 nM and the Ki [1] was 0.9 nM.
`CC(=O)Nc1nnc(S(N)(=O)=O)s1` [ACETAZOLAMIDE] showed a Ki [2] of 49 nM.
`CN1CCN(NC(=S)S)CC1` showed a Ki (Carbonic anhydrase 1) of 0.9 nM and a Ki [1] of 13.8 nM.
With `CCC(C)NC(=S)S` (racemic) the Ki (Carbonic anhydrase 1) was 325 nM and the Ki [1] was 0.9 nM.
In the case of `CCCCN(CC)C(=S)S` [ETHYLBUTYLCARBAMODITHIOATE SODIUM SALT], the Ki (Carbonic anhydrase 1) is reported as 10.5 nM and the Ki [1] is reported as 21.9 nM.
`S=C(S)N1CCOCC1` [MORPHOLINECARBAMODITHIOATE SODIUM SALT] gave a Ki (Carbonic anhydrase 1) of 13.8 nM and a Ki [1] of 0.8 nM.
`CN(C)C(=S)S` [SODIUM DIMETHYLCARBAMODITHIOATE] showed a Ki (Carbonic anhydrase 1) of 3460 nM and a Ki [1] of 769 nM.
With `S=C(S)NCc1ccncc1` the Ki (Carbonic anhydrase 1) was 35.1 nM and the Ki [1] was 58.8 nM.
Compound `CN(C(=S)S)c1ccccc1` [SODIUM METHYL(PHENYL)CARBAMODITHIOATE] has a Ki (Carbonic anhydrase 1) of 67.1 nM and a Ki [1] of 5.9 nM.
`O=C(O)CNC(=S)S` showed a Ki (Carbonic anhydrase 1) of 123 nM and a Ki [1] of 76.5 nM.
For `O=C(O)[C@@H]1CCCN1C(=S)S`, the Ki (Carbonic anhydrase 1) was 1.4 nM and the Ki [1] was 13.6 nM.
Work on `S=C(S)NCCN1CCOCC1` yielded a Ki (Carbonic anhydrase 1) of 12.1 nM and a Ki [1] of 10.4 nM.
Work on `S=C(S)NCc1ccccc1` [SODIUM BENZYLCARBAMODITHIOATE] yielded a Ki (Carbonic anhydrase 1) of 0.8 nM and a Ki [1] of 213 nM.
Compound `CCN(CC)C(=S)S` [DITIOCARB SODIUM] has a Ki (Carbonic anhydrase 1) of 2350 nM and a Ki [1] of 654 nM.
Work on `CCCCN(CCCC)C(=S)S` [DIBUTYLCARBAMODITHIOATE SODIUM SALT] yielded a Ki (Carbonic anhydrase 1) of 17.1 nM and a Ki [1] of 0.5 nM.
Work on `S=C(S)NCCN(CCNC(=S)S)CNC(=S)S` yielded a Ki (Carbonic anhydrase 1) of 134 nM and a Ki [1] of 1.5 nM.
With `S=C(S)Nc1cccs1` the Ki (Carbonic anhydrase 1) was 0.5 nM and the Ki [1] was 3.9 nM.
Work on `CCCCCCN(CCCCCC)C(=S)S` [DIHEXYLCARBAMODITHIOATE SODIUM SALT] yielded a Ki (Carbonic anhydrase 1) of 1.4 nM and a Ki [1] of 3.8 nM.
Compound `NCCCn1ccnc1.S=C(S)NCCCn1ccnc1` has a Ki (Carbonic anhydrase 1) of 0.9 nM and a Ki [1] of 24.1 nM.
With `S=C(S)NCCN1CCCCC1` the Ki (Carbonic anhydrase 1) was 57.1 nM and the Ki [1] was 26.7 nM.
Work on `S=C(S)Nc1ccccc1` [TRIETHYLAMMONIUM PHENYLCARBAMODITHIOATE] yielded a Ki (Carbonic anhydrase 1) of 21.4 nM and a Ki [1] of 33.9 nM.
In the case of `OCCN(CCO)C(=S)S`, the Ki (Carbonic anhydrase 1) is reported as 3.2 nM and the Ki [1] is reported as 134 nM.
